In patent US20230255988A1 (CORNELL UNIVERSITY, priority 2020, published 2023):
“Also recorded” adds a separate entry of the source.

Assays:
[1] = tested on: amyloid positive patients with amnestic mild cognitive impairment (aMCI) or mild dementia due to AD; experiment: Clinical dementia rating (CDR) score, 12-month trial; type: in vivo, human
Excerpt: ADAS-cog served as the primary endpoint. […] The trial duration per participant was twelve months. […] Clinical dementia rating (CDR) score. CDR is a five-point scale used to characterize six domains of cognitive and functional performance applicable to Alzheimer's disease and related dementias: Memory, Orientation, Judgment & Problem Solving, Community Affairs, Home & Hobbies, and Personal Care. A higher score indicates greater dementia (C. P. Hughes et al., British Journal of Psychiatry, 140, 566-572, 1982). The primary clinical outcome was ADAS-Cog, and secondary outcomes included the CDR score and fluorodeoxyglucose ([…]) imaging of the brain. AGE levels were an exploratory outcome. The primary analysis followed Intention-to-Treat (ITT) and the secondary analysis was per-protocol. The per-protocol analysis omitted one placebo participant who took benfotiamine from a commercial vendor. The ITT and per-protocol analysis are presented for the primary outcome ADAS-cog and the secondary measure CDR. For the other measures, only per-protocol analysis are presented.

[2] = tested on: amyloid positive patients with amnestic mild cognitive impairment (aMCI) or mild dementia due to AD; experiment: Alzheimer's Disease Cooperative Study-Activities of Daily Living (ADCS-ADL), 12-month trial; type: in vivo, human; details: 12 months
Excerpt: The trial duration per participant was twelve months.
Alzheimer's Disease Cooperative Study-Activities of Daily Living (ADCS-ADL). The ADCS-ADLSIV is a caregiver-based ADL scale composed of 19 items developed for use in dementia clinical studies (D. Galasko et al., Alzheimer Disease and Associated Disorders, 11, S33-S39, 1997). It assesses the patient's performance of both basic and instrumental activities of daily living, such as those necessary for personal care, communicating and interacting with other people, maintaining a household, conducting hobbies and interests, as well as making judgments and decisions. Higher numbered scores and answers of “yes” reflect a more self-sufficient individual. Therefore, the higher total score correlates with higher cognitive function. The total score is the sum of all items and sub-questions.

[3] = in vivo
Description: Measures of thiamine and its esters thiamine diphosphate (ThDP) and thiamine monophosphate (ThMP) provided blood markers of efficacy of drug delivery.
Study procedures. […] At the baseline visit, the cognitive tests were performed and blood drawn for measurement of thiamine, ThDP and ThMP by HPLC and APOE genotyping. Enrolled patients returned to the Burke outpatient clinic at month 3, 6, 9 and 12 for subsequent visits. At month 12, the final FDG/PET scan was performed at CUIMC.
The trial duration per participant was twelve months. […] At each visit, the patients returned the pill bottles for that period. The number of pills returned was used to assess compliance (the percent of pills consumed).

[4] = tested on: advanced glycation end products (AGE); experiment: Advanced glycation end products (AGE) level, ABCAM kit; type: in vivo, human; details: 12 months
Description: Biomarker outcomes. AGE are formed during the Maillard reaction where reducing carbohydrates react with lysine side chains and N-terminal amino groups of various macromolecules, particularly proteins. AGE can adversely affect the function of these macromolecules. One of the most prevalent advanced glycation end products, N-epsilon-(carboxymethyl) lysine, has been implicated in oxidative stress and vascular damage. The quantity of AGE adduct in protein samples is determined by comparison with that of a known AGE-BSA standard curve. AGE levels were measured on plasma sample with a kit from ABCAM (AB238539), Cambridge, Mass., USA

[5] = tested on: brain glucose utilization; experiment: FDG PET spatial covariance pattern score (SSM/PCA, CDR-derived); type: in vivo, human
Description: A multivariate machine learning approach was also applied to evaluate the FDG PET data (FIG. 10). Pattern-based methods have been increasingly applied to the evaluation of neurodegeneration and therapeutic response as they address the issue of complexity in comparing multiple regions and can increase signal to noise for analysis. Feature reduction was performed through use of the Scaled Subprofile Model (SSM), a form of Principal Components Analysis (PCA). The resulting components were used in regression modeling that determined spatial patterns of hypometabolism and hypermetabolism (or preservation relative to other regions) associated with the Clinical Dementia Rating (CDR) score.
Specifically, SSM by performing PCA on the PET-data array was run, with a subsequent brain-behavioral regression to derive a best-fitting pattern whose pattern scores correlates with the CDR score in a negative direction (i.e., the higher the pattern score, the lower the CDR).
To help with the imputation of the multivariate analysis, a generic multivariate decomposition was written as: Y(s,x)=w(s) v(x)+ε(s,x), where Y denotes the (log-transformed) data which depends on a participant and time index s and the voxel location x. […] The pattern score w(s) was chosen to correlate negatively with CDR across the data. The pattern v(x) is normalized to have unity Euclidean norm, i.e. ||v||=1. This means that the pattern score carries all information about the strength of the signal associated with the spatial pattern. Higher values of w(s) imply higher values of pattern-associated FDGPET signal in direct proportion in all regions.
To estimate the topographic robustness of any patterns of interest, a bootstrap resampling procedure was performed 10,000 times, for which data were resampled with replacement and the complete analytic recipe was executed on the resampled data, generating distribution for pattern loadings. […] For the correct interpretation, it is worth noting that positive and negative loadings describe only relative, and not absolute differences, in the signal associated with any covariance pattern. Since the residual signal in ε(s,x) was stripped off, there cannot be assurance that there are absolute differences in the total data for the regions with robust loadings.
After deriving and estimating the topographic robustness of the pattern, the pattern score was inspected for an effect of treatment at baseline and follow-up, also broken down by APOE ε4 status.

C/C(=C(\CCOP(=O)(O)O)SC(=O)c1ccccc1)N(C=O)Cc1cnc(C)nc1N [benfotiamine]
Mean change in global CDR from baseline to 12 months ([1]; 2×300 mg per day, placebo 0.22, p=0.034): 0.05
reduction of deterioration (global CDR change versus placebo) ([1]; baseline to 12 months): 77%
CDR response by APOE ε4 status ([1]; non-APOE ε4 group p=0.013): non-APOE ε4 group seemed to respond much more; also recorded: only the non-APOE ε4 allele group differs
mean change in CDR-SB from baseline to 12 months, versus placebo ([1]; p=0.078): difference at trend level
ADCS-ADL score versus placebo [2]: no significant differences
increase in blood thiamine above baseline ([3]; human, 12 months): 161 fold
difference in thiamine levels by APOE-epsilon4 carrier status following treatment [3]: three-fold
AGE effect by APOE ε4 status [4]: more apparent in non-APOE ε4 patients
effect on AGE over the course of the disease ([4]; 13 benfotiamine patients, p=0.043): inhibited the increase in AGE
CDR-derived FDG PET pattern, treatment effect in APOE ε4 negative population ([5]; 12 months, p=0.019): treatment effect at 12 months; also recorded: show a treatment effect
CDR-derived FDG PET pattern, treatment effect in APOE ε4 positive population ([5]; 12 months, p=0.255): not in APOE ε4 positive population; also recorded: do not
longitudinal change in pattern score (follow-up minus baseline), treated versus untreated ([5]; 59 participants who completed follow-up, p=0.638): No difference in longitudinal change
FDG PET pattern score at time point of 12 months, treatment versus untreated ([5]; FIG. 10A): slightly but significantly higher
FDG PET pattern score, change from baseline to 12 months versus untreated ([5]; all participants, APOE status not considered): significantly higher change from baseline to 12 months in treated than untreated participants
